Laboratory results from patent US20050288347A1, “Certain triazole-based compounds, compositions, and uses thereof” (priority 2004, published 2005).
Entries after “also recorded” stand apart in the source; their conditions may differ. Like-named read-outs stand apart in the source and are kept apart here.

Target: protein kinase
Assay: HTS ATP-utilizing enzyme assay, off-chip mobility-shift format (Caliper HTS 250)
Format: biochemical, human
Conditions: for protein kinase against which the compound exhibits inhibitory activity (Table 3): active = activity greater than three-sigma from the mean of the predominately inactive population for that enzyme
Method in brief: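 Kinase reactions ran 2.5 h at 20 to 22 °C with test compound at 10 μM, in a HEPES pH 7.5 master buffer containing Triton X-100 and BSA. Peptide substrate and phosphorylated product separated by mobility shift; inhibition normalized to DMSO (0%) and EDTA (100%) controls, with three-sigma thresholds for hits.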

[1] = kinase(s) for which the compound exhibits protein kinase inhibitory activity, test compound 10 μM, active = greater than three-sigma from the mean activity of inactive compounds

SMILES	Kinase [1]	further results
Cc1cc(NC(=O)CSc2nnc(-c3ccc(O)cc3)n2C)no1	GSK3-β; also recorded: GSK3-α	–
Cn1cnnc1SCc1csc(Cc2ccc(Cl)c(Cl)c2)n1	–	protein kinase against which the compound exhibits inhibitory activity (Table 3) (test compound 10 μM): GSK3-α
Cn1c(SCC#N)nnc1-c1ccc(O)cc1 [2-(5-(4-hydroxyphenyl)-4-methyl-4H-1,2,4-triazol-3-ylthio)acetonitrile]	GSK3-β; also recorded: GSK3-α; also recorded: DAPK1	–
Cc1cc(C)nc(SCc2nnc(SCc3ccccc3)n2Cc2ccco2)n1	–	protein kinase against which the compound exhibits inhibitory activity (Table 3) (test compound 10 μM): CDK1
Cc1ccc(NCc2nnc(SCc3nnc(-c4ccccc4)o3)n2Cc2ccco2)c(C)c1	–	protein kinase against which the compound exhibits inhibitory activity (Table 3) (test compound 10 μM): AURORA-A
O=C(O)c1ccc(CSc2nnc(-c3cccc(Cl)c3)[nH]2)cc1 [4-((5-(3-chlorophenyl)-4H-1,2,4-triazol-3-ylthio)methyl)benzoic acid]	–	protein kinase against which the compound exhibits inhibitory activity (Table 3) (test compound 10 μM): FLT-3; also recorded: DYRK2; also recorded: AURORA-A
O=C(O)CSc1nnc(-c2ccc(OC(F)(F)F)cc2)[nH]1 [2-(5-(4-(trifluoromethoxy)phenyl)-4H-1,2,4-triazol-3-ylthio)acetic acid]	GSK3-β; also recorded: GSK3-α; also recorded: DYRK2	–
Cn1c(SCC(=O)Nc2nc3c(s2)CCCC3)nnc1-c1ccc(O)cc1	GSK3-β; also recorded: GSK3-α; also recorded: CDK2-cyclinE	–
O=C(CSc1nnc(-c2ccc(O)cc2)n1CC1CCCO1)c1ccc2c(c1)OCCO2 (stereo not drawn)	GSK3-β and SGK1	–
NC(=O)CSc1nnc(-c2ccc(S(=O)(=O)N3CCCCC3)cc2)[nH]1 [2-(5-(4-(piperidin-1-ylsulfonyl)phenyl)-4H-1,2,4-triazol-3-ylthio)acetamide]	GSK3-β; also recorded: AURORA-A; also recorded: GSK3-α	–
O=C(O)CSc1nnc(-c2ccc(Cl)c(Cl)c2)[nH]1 [2-(5-(3,4-dichlorophenyl)-4H-1,2,4-triazol-3-ylthio)acetic acid]	GSK3-α; also recorded: GSK3-B β; also recorded: AURORA-A	–
COc1ccc(NCc2nnc(SCCCC3CCCCC3)n2C)cc1	–	protein kinase against which the compound exhibits inhibitory activity (Table 3) (test compound 10 μM): PDGFRR-α and FYN and FLT-3
O=C(O)CSc1nnc(-c2cccnc2)n1-c1ccc(F)cc1 [2-(4-(4-fluorophenyl)-5-(pyridin-3-yl)-4H-1,2,4-triazol-3-ylthio)acetic acid]	AURORA-A	–
COc1ccccc1-c1nnc(N)[nH]1 [5-(2-methoxyphenyl)-4H-1,2,4-triazol-3-amine]	AURORA-A; also recorded: CDK2/CyclinE; also recorded: CHEK2	–
CC(C)(C)c1ccc(CSc2nnc(COc3ccc(Cl)cc3)n2-c2ccccc2)cc1	–	protein kinase against which the compound exhibits inhibitory activity (Table 3) (test compound 10 μM): SYK
COc1ccccc1-n1c(SCC(=O)Nc2ccccc2)nnc1-c1ccccc1O	–	protein kinase against which the compound exhibits inhibitory activity (Table 3) (test compound 10 μM): AURORA-A
COc1ccc(-c2nnc(SCc3ccccc3C#N)[nH]2)cc1 [2-((5-(4-methoxyphenyl)-4H-1,2,4-triazol-3-ylthio)methyl)benzonitrile]	–	protein kinase against which the compound exhibits inhibitory activity (Table 3) (test compound 10 μM): AURORA-A; also recorded: CHEK2; also recorded: GSK3-α
COc1ccc(-n2c(SCC(=O)Nc3cccc(C(C)=O)c3)nnc2-c2ccc(O)cc2)cc1	GSK3-β; also recorded: GSK3-α	–
CCCN(CCC)C(=O)CSc1nnc(-c2ccccc2O)n1-c1ccccc1OC	–	protein kinase against which the compound exhibits inhibitory activity (Table 3) (test compound 10 μM): KIT and AURORA-A and PKA
Clc1cccc(NCc2nnc(SCc3ccccc3Cl)n2-c2ccccc2)c1	–	protein kinase against which the compound exhibits inhibitory activity (Table 3) (test compound 10 μM): LCK

SMILES	Kinase [1]	further results
C=CCn1c(SCC(=O)Nc2cccc([N+](=O)[O-])c2)nnc1-c1ccncc1	FYN	–
COc1ccc(-n2c(Cc3ccccc3)nnc2SC)cc1 [3-benzyl-4-(4-methoxyphenyl)-5-(methylthio)-4H-1,2,4-triazole]	–	protein kinase against which the compound exhibits inhibitory activity (Table 3) (test compound 10 μM): AKT1
N#CCSc1nnc(-c2ccc(F)cc2)[nH]1 [2-(5-(4-fluorophenyl)-4H-1,2,4-triazol-3-ylthio)acetonitrile]	FLT-3; also recorded: DYRK2; also recorded: GSK3-β	–
Cc1nnc(S)n1CC1CCCO1 (stereo not drawn) [5-methyl-4-((tetrahydrofuran-2-yl)methyl)-4H-1,2,4-triazole-3-thiol]	MAPKAPK-2	–
COc1ccccc1OCc1nnc(S)n1Cc1ccco1	AURORA-A; also recorded: GSK3-β; also recorded: GSK3-α	–
CC(C)(C)c1nnc(SCC#N)[nH]1 [2-(5-tert-butyl-4H-1,2,4-triazol-3-ylthio)acetonitrile]	DYRK2; also recorded: GSK3-α	–
COc1ccc(NCc2nnc(SCC(=O)Nc3ccc(C(C)=O)cc3)n2C)cc1	PDGFRR-α and FLT-3 and FYN	–
COc1ccc(NCc2nnc(SCC(N)=O)n2C)cc1	PDGFRR-α and FYN	–
Clc1ccc(Cn2c(Cc3ccccc3)nnc2SCc2ccccc2)cc1Cl [3-benzyl-5-(benzylthio)-4-(3,4-dichlorobenzyl)-4H-1,2,4-triazole]	–	protein kinase against which the compound exhibits inhibitory activity (Table 3) (test compound 10 μM): AURORA-A
CCOC(=O)CSc1nnc(-c2ccncc2)[nH]1 [ethyl 2-(5-(pyridin-4-yl)-4H-1,2,4-triazol-3-ylthio)acetate]	CDK2-cyclinA and AURORA-A and CDK5	–
NC(=O)CSc1nnc(-c2ccc(OC(F)(F)F)cc2)[nH]1	–	protein kinase against which the compound exhibits inhibitory activity (Table 3) (test compound 10 μM): AURORA-A; also recorded: GSK3-β; also recorded: DYRK2
CCc1nnc(NC(=O)CSc2nnc(-c3ccc(O)cc3)n2-c2ccc(OC)cc2)s1	GSK3-β and GSK3-α and AKT1	–
Cn1c(SCC(=O)OC2CCCCC2)nnc1-c1ccc([N+](=O)[O-])cc1 [cyclohexyl 2-(4-methyl-5-(4-nitrophenyl)-4H-1,2,4-triazol-3-ylthio)acetate]	PDGFRR-α and FYN and FLT-3	–
Cn1c(SCC(=O)NN(Br)C(=O)c2ccccc2)nnc1C1CCCCC1	–	protein kinase against which the compound exhibits inhibitory activity (Table 3) (test compound 10 μM): SGK1
CCOC(=O)c1c(NC(=O)CSc2nnc(CNc3ccc(OC)cc3)n2C)sc(C)c1C	PDGFRR-α; also recorded: FLT-3; also recorded: AURORA-A	–
CCOCCSc1nnc(-c2ccc(OC(F)(F)F)cc2)[nH]1 [3-(2-ethoxyethylthio)-5-(4-(trifluoromethoxy)phenyl)-4H-1,2,4-triazole]	–	protein kinase against which the compound exhibits inhibitory activity (Table 3) (test compound 10 μM): AURORA-A; also recorded: GSK3-β
CCCOc1ccc(CNC(=O)CSc2nnc(-c3ccc(OC)c(OC)c3)n2C)cc1	AURORA-A; also recorded: DYRK2	–
Cn1c(SCC(=O)NCc2ccc3c(c2)OCO3)nnc1-c1cc2ccccc2cc1O	–	Kinase: CSK
COc1ccc(-n2c(S)nnc2-c2ccc(O)cc2)cc1 [4-(5-mercapto-4-(4-methoxyphenyl)-4H-1,2,4-triazol-3-yl)phenol]	CDK5 and GSK3-β and GSK3-α	–

More lines, main results first:

Kinase [1]	SMILES	further results
FYN	COc1ccc(NCc2nnc(SCC(=O)Nc3ccccc3C(=O)O)n2-c2ccc(OC)cc2)cc1	–
CDK5 and GSK3-α and CDK2-cyclinA	Oc1ccc(-c2nnc(S)n2-c2ccccc2)cc1 [4-(5-mercapto-4-phenyl-4H-1,2,4-triazol-3-yl)phenol]	–
AURORA-A	COc1ccc(-c2nnc(SCC(=O)Nc3ccccc3O)n2-c2ccccc2)cc1OC	–
PDGFRR-α and FYN	COc1ccc(NCc2nnc(SCC(=O)NCc3ccco3)n2-c2ccccc2OC)cc1	–
INSR and CHEK1 and FYN	COc1ccc(NCc2nnc(SCC(=O)Nc3ccccc3C)n2C)cc1	–
AURORA-A	Sc1nnc(CNc2ccc(Cl)cc2)n1Cc1ccccc1 [4-benzyl-5-((4-chlorophenylamino)methyl)-4H-1,2,4-triazole-3-thiol]	–
MAPKAPK-2	Cn1c(SCC(=O)N2CCc3ccccc32)nnc1-c1ccc(N)cc1	–
GSK3-β; also recorded: AURORA-A	Cc1nc(NC(=O)CSc2nnc(-c3cccnc3)n2Cc2ccco2)sc1C	–
PDGFRR-α and PAK2	CN(C)CCCn1c(SCC(=O)NCc2ccco2)nnc1-c1ccncc1	–
MSK2 and FYN and HCK	Cn1c(SCC(=O)c2ccc(O)c(O)c2)nnc1-c1ccccc1	–
AURORA-A	COc1ccccc1OCc1nnc(S)n1Cc1ccccc1 [4-benzyl-5-((2-methoxyphenoxy)methyl)-4H-1,2,4-triazole-3-thiol]	–
MAPKAPK-2 and CDK2-cyclinE and LCK	Cc1nnc(SCC(=O)N2c3ccccc3Sc3ccccc32)[nH]1 [2-(5-methyl-4H-1,2,4-triazol-3-ylthio)-1-(10H-phenothiazin-10-yl)ethanone]	–
SYK and PRAK	CNC(=O)CSc1nnc(-c2ccc(OC)cc2)n1-c1ccccc1	–
MAPKAPK-2 and CDK1	COc1ccc(-n2c(COc3cccc4ccccc34)nnc2SCC#N)cc1	–
FYN	COc1ccc(-c2nnc(SCC(=O)O)n2-c2ccccc2)cc1OC [2-(5-(3,4-dimethoxyphenyl)-4-phenyl-4H-1,2,4-triazol-3-ylthio)acetic acid]	–
FYN	CCOC(=O)c1ccc(NC(=O)CSc2nnc(COc3ccc(OC)cc3)n2CC)cc1	–
GSK3-α	O=C(CSc1nnc(-c2ccccc2O)n1Cc1ccco1)OCc1ccccc1	–
HCK	Cc1ccc(NC(=O)C(C)Sc2nnc(-c3ccc(O)cc3)n2-c2ccccc2)cc1 (stereo not drawn)	–
CDK1 and CHEK2	N#CCSc1nnc(COc2cccc3ccccc23)n1Cc1ccccc1	–
FYN and PDGFRR-α and FLT-3	COc1ccc(NCc2nnc(SCC(=O)Nc3ccc(C)cc3Br)n2C)cc1	–
DAPK1	COCCn1c(SCC(=O)OC2CCCCC2)nnc1-c1cc2ccccc2cc1O	–
CHEK2	CC(=O)c1ccc(NC(=O)CSc2nnc(COc3ccccc3)n2-c2ccc(C)cc2)cc1	–
FLT-3; also recorded: AURORA-A	Cc1cccc(-c2nnc(SCC(=O)c3ccccc3)[nH]2)c1 [1-phenyl-2-(5-m-tolyl-4H-1,2,4-triazol-3-ylthio)ethanone]	–
PRAK and CHEK2	COc1ccc(-c2nnc(SCC(=O)Nc3ccccc3)n2-c2ccccc2)cc1	–
HCK	Cn1c(Cc2ccccc2)nnc1SCC(N)=O [2-(5-benzyl-4-methyl-4H-1,2,4-triazol-3-ylthio)acetamide]	–
CHEK2	CCn1c(CNc2ccc(C)cc2)nnc1SCC(=O)Nc1cccc(Cl)c1	–
FYN	CCOC(=O)CSc1nnc(-c2cc3ccccc3cc2O)n1C	–
